Test results reported in patent publication US12053459B2, “CDK2 inhibitors and methods of using the same” (Cedilla Therapeutics, Inc., priority 2021, dated 2024).

Assays:
Kuramochi cells = test: BrdU cell proliferation assay (colorimetric ELISA), Kuramochi cells; assay type: cell-based; conditions: class symbols A-D
Outline: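 Kuramochi cells (2,000/well, with Kuramochi RB^KO cells as a specificity control) were treated with a 4-point, 3-fold dilution series made from 10 mM compound stocks and left for 4 days at 37 °C. Proliferation was measured by 1 h BrdU labelling, then anti-BrdU peroxidase ELISA read at 450 nm. Signals were background-subtracted and normalized to DMSO wells.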

CDK2/Cyclin E1(14-475) = CDK2/Cyclin E1(14-475) (Homo sapiens, UniProt P24941); test: Caliper LabChip EZ Reader mobility shift assay, inhibition of CDK2/Cyclin E1 activity; assay type: biochemical; conditions: class symbols A-D
Outline: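 CDK2/Cyclin E1(14-475) pre-incubated 30 min with compound and ATP, then reaction started with 5-FAM-QSPKKG-CONH2; final 2.5 nM enzyme, 100 μM ATP, 1.5 μM peptide, HEPES pH 7.5. Stopped with EDTA after 100 min; substrate/product conversion by capillary electrophoresis mobility shift, IC50 from four-parameter fit.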

IC50 (CDK2/Cyclin E1(14-475))	Compound	IC50 (Kuramochi cells)
> 10 µM	CNC(=O)[C@H](CCCc1ccccc1)NC(=O)C1CN(C(=O)Cn2ccc3ccccc32)CC2CN(C(=O)c3ccc(OC(C)C)c(OC)c3)CC21 (stereo partly drawn) [I-161]	> 10 µM
> 10 µM	CNC(=O)[C@H](CCCc1ccccc1)NC(=O)C1CN(C(=O)c2cc3cc(C)ccc3[nH]2)CC2CN(C(=O)c3ccc(OC(C)C)c(OC)c3)CC21 (stereo partly drawn) [I-162]	> 10 µM
> 10 µM	CNC(=O)[C@H](CCCc1ccccc1)NC(=O)C1CN(C(=O)c2cnc(OC)cn2)CC2CN(C(=O)c3ccc(OC(C)C)c(OC)c3)CC21 (stereo partly drawn) [I-163]	> 10 µM
> 10 µM	CNC(=O)[C@H](CCCc1ccccc1)NC(=O)C1CN(C(=O)CCc2ccccn2)CC2CN(C(=O)c3ccc(OC(C)C)c(OC)c3)CC21 (stereo partly drawn) [I-164]	> 10 µM
> 10 µM	CNC(=O)[C@H](CCCc1ccccc1)NC(=O)C1CN(C(=O)c2ccc3nccnc3c2)CC2CN(C(=O)c3ccc(OC(C)C)c(OC)c3)CC21 (stereo partly drawn) [I-165]	> 10 µM
> 10 µM	CNC(=O)[C@H](CCCc1ccccc1)NC(=O)C1CN(C(=O)c2coc(C)n2)CC2CN(C(=O)c3ccc(OC(C)C)c(OC)c3)CC21 (stereo partly drawn) [I-166]	> 10 µM
> 10 µM	CNC(=O)[C@H](CCCc1ccccc1)NC(=O)C1CN(C(=O)Cc2ccc3ncccc3c2)CC2CN(C(=O)c3ccc(OC(C)C)c(OC)c3)CC21 (stereo partly drawn) [I-167]	> 10 µM
> 10 µM	CNC(=O)[C@H](CCCc1ccccc1)NC(=O)C1CN(C(=O)c2cc(-c3ccccc3)n[nH]2)CC2CN(C(=O)c3ccc(OC(C)C)c(OC)c3)CC21 (stereo partly drawn) [I-168]	> 10 µM
> 10 µM	CNC(=O)[C@H](CCCc1ccccc1)NC(=O)C1CN(C(=O)C2(C)CCOCC2)CC2CN(C(=O)c3ccc(OC(C)C)c(OC)c3)CC21 (stereo partly drawn) [I-169]	> 10 µM
> 10 µM	CNC(=O)[C@H](CCCc1ccccc1)NC(=O)C1CN(C(=O)c2cc3cccc(C)c3[nH]2)CC2CN(C(=O)c3ccc(OC(C)C)c(OC)c3)CC21 (stereo partly drawn) [I-170]	> 10 µM
> 10 µM	CNC(=O)[C@H](CCCc1ccccc1)NC(=O)C1CN(C(=O)c2[nH]ccc2C)CC2CN(C(=O)c3ccc(OC(C)C)c(OC)c3)CC21 (stereo partly drawn) [I-171]	> 10 µM
> 10 µM	CNC(=O)[C@H](CCCc1ccccc1)NC(=O)C1CN(C(=O)c2c[nH]c3cc(Cl)ccc23)CC2CN(C(=O)c3ccc(OC(C)C)c(OC)c3)CC21 (stereo partly drawn) [I-172]	> 10 µM
0.5 to 5 µM	CNC(=O)[C@H](CCCc1ccccc1)NC(=O)C1CN(C(=O)Cc2c[nH]c3ccc(F)cc23)CC2CN(C(=O)c3ccc(OC(C)C)c(OC)c3)CC21 (stereo partly drawn) [I-173]	> 10 µM
0.5 to 5 µM	CNC(=O)[C@H](CCCc1ccccc1)NC(=O)C1CN(C(=O)Cc2c[nH]c3cc(F)ccc23)CC2CN(C(=O)c3ccc(OC(C)C)c(OC)c3)CC21 (stereo partly drawn) [I-174]	> 10 µM
> 10 µM	CNC(=O)[C@H](CCCc1ccccc1)NC(=O)C1CN(C(=O)Cc2c[nH]c3c(C)cccc23)CC2CN(C(=O)c3ccc(OC(C)C)c(OC)c3)CC21 (stereo partly drawn) [I-175]	> 10 µM
> 10 µM	CNC(=O)[C@H](CCCc1ccccc1)NC(=O)C1CN(C(=O)Cc2c[nH]c3cccc(OC)c23)CC2CN(C(=O)c3ccc(OC(C)C)c(OC)c3)CC21 (stereo partly drawn) [I-176]	> 10 µM
> 10 µM	CNC(=O)[C@H](CCCc1ccccc1)NC(=O)C1CN(C(=O)C(C)(C)c2c[nH]c3ccccc23)CC2CN(C(=O)c3ccc(OC(C)C)c(OC)c3)CC21 (stereo partly drawn) [I-177]	> 10 µM
> 10 µM	CNC(=O)[C@H](CCCc1ccccc1)NC(=O)C1CN(C(=O)Cc2cccc3[nH]ccc23)CC2CN(C(=O)c3ccc(OC(C)C)c(OC)c3)CC21 (stereo partly drawn) [I-178]	> 10 µM
> 10 µM	CNC(=O)[C@H](CCCc1ccccc1)NC(=O)C1CN(C(=O)Cc2c[nH]c3ncccc23)CC2CN(C(=O)c3ccc(OC(C)C)c(OC)c3)CC21 (stereo partly drawn) [I-179]	> 10 µM
> 10 µM	CNC(=O)[C@H](CCCc1ccccc1)NC(=O)C1CN(C(=O)c2cccc3[nH]ccc23)CC2CN(C(=O)c3ccc(OC(C)C)c(OC)c3)CC21 (stereo partly drawn) [I-180]	> 10 µM
> 10 µM	CNC(=O)[C@H](CCCc1ccccc1)NC(=O)C1CN(C(=O)c2cnc3ccccc3c2)CC2CN(C(=O)c3ccc(OC(C)C)c(OC)c3)CC21 (stereo partly drawn) [I-181]	> 10 µM
> 10 µM	CNC(=O)[C@H](CCCc1ccccc1)NC(=O)C1CN(C(=O)c2n[nH]c3ccccc23)CC2CN(C(=O)c3ccc(OC(C)C)c(OC)c3)CC21 (stereo partly drawn) [I-182]	> 10 µM
> 10 µM	CNC(=O)[C@H](CCCc1ccccc1)NC(=O)C1CN(C(=O)c2cc(C)[nH]n2)CC2CN(C(=O)c3ccc(OC(C)C)c(OC)c3)CC21 (stereo partly drawn) [I-183]	> 10 µM
> 10 µM	CNC(=O)[C@H](CCCc1ccccc1)NC(=O)C1CN(C(=O)c2ccc(C)cn2)CC2CN(C(=O)c3ccc(OC(C)C)c(OC)c3)CC21 (stereo partly drawn) [I-184]	> 10 µM

IC50 (CDK2/Cyclin E1(14-475))	Compound	IC50 (Kuramochi cells)
> 10 µM	CNC(=O)[C@H](CCCc1ccccc1)NC(=O)C1CN(C(=O)c2sc(C)nc2C)CC2CN(C(=O)c3ccc(OC(C)C)c(OC)c3)CC21 (stereo partly drawn) [I-185]	> 10 µM
> 10 µM	CNC(=O)[C@H](CCCc1ccccc1)NC(=O)C1CN(C(=O)Cc2nnn[nH]2)CC2CN(C(=O)c3ccc(OC(C)C)c(OC)c3)CC21 (stereo partly drawn) [I-186]	> 10 µM
> 10 µM	CNC(=O)[C@H](CCCc1ccccc1)NC(=O)C1CN(C(=O)c2ocnc2C)CC2CN(C(=O)c3ccc(OC(C)C)c(OC)c3)CC21 (stereo partly drawn) [I-187]	> 10 µM
> 10 µM	CNC(=O)[C@H](CCCc1ccccc1)NC(=O)C1CN(C(=O)c2oc(C)nc2C)CC2CN(C(=O)c3ccc(OC(C)C)c(OC)c3)CC21 (stereo partly drawn) [I-188]	> 10 µM
> 10 µM	CNC(=O)[C@H](CCCc1ccccc1)NC(=O)C1CN(C(=O)c2ccc(C)[nH]2)CC2CN(C(=O)c3ccc(OC(C)C)c(OC)c3)CC21 (stereo partly drawn) [I-189]	> 10 µM
> 10 µM	CNC(=O)[C@H](CCCc1ccccc1)NC(=O)C1CN(C(=O)c2c[nH]c3ccc(F)cc23)CC2CN(C(=O)c3ccc(OC(C)C)c(OC)c3)CC21 (stereo partly drawn) [I-190]	> 10 µM
> 10 µM	CNC(=O)[C@H](CCCc1ccccc1)NC(=O)C1CN(C(=O)c2c[nH]c3c(C)cccc23)CC2CN(C(=O)c3ccc(OC(C)C)c(OC)c3)CC21 (stereo partly drawn) [I-191]	> 10 µM
> 10 µM	CNC(=O)[C@H](CCCc1ccccc1)NC(=O)C1CN(C(=O)CCCc2ccccn2)CC2CN(C(=O)c3ccc(OC(C)C)c(OC)c3)CC21 (stereo partly drawn) [I-192]	> 10 µM
> 10 µM	CNC(=O)[C@H](CCCc1ccccc1)NC(=O)C1CN(C(=O)c2ncoc2C)CC2CN(C(=O)c3ccc(OC(C)C)c(OC)c3)CC21 (stereo partly drawn) [I-193]	> 10 µM
> 10 µM	CNC(=O)[C@H](CCCc1ccccc1)NC(=O)C1CN(C(=O)c2ncc(Cl)cn2)CC2CN(C(=O)c3ccc(OC(C)C)c(OC)c3)CC21 (stereo partly drawn) [I-196]	> 10 µM
> 10 µM	CNC(=O)[C@H](CCCc1ccccc1)NC(=O)C1CN(C(=O)c2cc(Cl)[nH]n2)CC2CN(C(=O)c3ccc(OC(C)C)c(OC)c3)CC21 (stereo partly drawn) [I-197]	> 10 µM
> 10 µM	CNC(=O)[C@H](CCCc1ccccc1)NC(=O)C1CN(C(=O)Cc2cc[nH]n2)CC2CN(C(=O)c3ccc(OC(C)C)c(OC)c3)CC21 (stereo partly drawn) [I-198]	> 10 µM
> 10 µM	CNC(=O)[C@H](CCCc1ccccc1)NC(=O)C1CN(C(=O)c2ccc3cccn3c2)CC2CN(C(=O)c3ccc(OC(C)C)c(OC)c3)CC21 (stereo partly drawn) [I-199]	> 10 µM
5 to 10 µM	CNC(=O)[C@H](CCCc1ccccc1)NC(=O)C1CN(C(=O)Cc2c[nH]c3ccc(OC)cc23)CC2CN(C(=O)c3ccc(OC(C)C)c(OC)c3)CC21 (stereo partly drawn) [I-200]	> 10 µM
0.5 to 5 µM	CNC(=O)[C@H](CCCc1ccccc1)NC(=O)C1CN(C(=O)Cc2c(C)[nH]c3ccccc23)CC2CN(C(=O)c3ccc(OC(C)C)c(OC)c3)CC21 (stereo partly drawn) [I-201]	> 10 µM
> 10 µM	CNC(=O)[C@H](CCCc1ccccc1)NC(=O)C1CN(C(=O)Cc2ccncc2)CC2CN(C(=O)c3ccc(OC(C)C)c(OC)c3)CC21 (stereo partly drawn) [I-202]	> 10 µM
0.5 to 5 µM	CNC(=O)[C@H](CCCc1ccccc1)NC(=O)C1CN(C(=O)Cc2c[nH]c3cc(C#N)ccc23)CC2CN(C(=O)c3ccc(OC(C)C)c(OC)c3)CC21 (stereo partly drawn) [I-203]	> 10 µM
0.5 to 5 µM	CNC(=O)[C@H](CCCc1ccccc1)NC(=O)C1CN(C(=O)Cc2coc3cc(Cl)ccc23)CC2CN(C(=O)c3ccc(OC(C)C)c(OC)c3)CC21 (stereo partly drawn) [I-204]	> 10 µM
0.5 to 5 µM	CNC(=O)[C@H](CCCc1ccccc1)NC(=O)C1CN(C(=O)Cc2n[nH]c3cc(Cl)ccc23)CC2CN(C(=O)c3ccc(OC(C)C)c(OC)c3)CC21 (stereo partly drawn) [I-205]	> 10 µM
> 10 µM	CNC(=O)[C@H](CCCc1ccccc1)NC(=O)C1CN(C(=O)c2cncs2)CC2CN(C(=O)c3ccc(OC(C)C)c(OC)c3)CC21 (stereo partly drawn) [I-206]	> 10 µM
> 10 µM	CNC(=O)[C@H](CCCc1ccccc1)NC(=O)C1CN(C(=O)C2CCOCC2)CC2CN(C(=O)c3ccc(OC(C)C)c(OC)c3)CC21 (stereo partly drawn) [I-207]	> 10 µM
> 10 µM	CNC(=O)[C@H](CCCc1ccccc1)NC(=O)C1CN(C(=O)c2ccc(C#N)cn2)CC2CN(C(=O)c3ccc(OC(C)C)c(OC)c3)CC21 (stereo partly drawn) [I-208]	> 10 µM
> 10 µM	CNC(=O)[C@H](CCCc1ccccc1)NC(=O)C1CN(C(=O)c2cccc(CO)n2)CC2CN(C(=O)c3ccc(OC(C)C)c(OC)c3)CC21 (stereo partly drawn) [I-209]	> 10 µM
> 10 µM	CNC(=O)[C@H](CCCc1ccccc1)NC(=O)C1CN(C(=O)c2cccc(-c3cccnc3)c2)CC2CN(C(=O)c3ccc(OC(C)C)c(OC)c3)CC21 (stereo partly drawn) [I-210]	> 10 µM
